According to US20050282743A1, “Molecular interactions in cells” (Arbor Vita Corporation, priority 2001, published 2005):
Ends that are not written are not given here. Peptide text beside a SMILES is read from it. * marks the point of attachment. Biotin = O=C1N[C@H]2[C@H](CS[C@H]2CCCCC(=O)*)N1

What was measured:
Test in all cases: G' assay (10 uM PL peptide), results of TABLE 7 and TABLE 12
Assay type in all cases: binding
[1] = target: T1, PDZ protein (GST-PDZ fusion) (Homo sapiens, UniProt Q14CM0); settings: PDZ KIAA0316, PDZ Domain 1
T1 construct: made in house; host or cells: E. coli (DH5alpha, BL21 or JM109)
T1 sequence (Q14CM0 1-1322): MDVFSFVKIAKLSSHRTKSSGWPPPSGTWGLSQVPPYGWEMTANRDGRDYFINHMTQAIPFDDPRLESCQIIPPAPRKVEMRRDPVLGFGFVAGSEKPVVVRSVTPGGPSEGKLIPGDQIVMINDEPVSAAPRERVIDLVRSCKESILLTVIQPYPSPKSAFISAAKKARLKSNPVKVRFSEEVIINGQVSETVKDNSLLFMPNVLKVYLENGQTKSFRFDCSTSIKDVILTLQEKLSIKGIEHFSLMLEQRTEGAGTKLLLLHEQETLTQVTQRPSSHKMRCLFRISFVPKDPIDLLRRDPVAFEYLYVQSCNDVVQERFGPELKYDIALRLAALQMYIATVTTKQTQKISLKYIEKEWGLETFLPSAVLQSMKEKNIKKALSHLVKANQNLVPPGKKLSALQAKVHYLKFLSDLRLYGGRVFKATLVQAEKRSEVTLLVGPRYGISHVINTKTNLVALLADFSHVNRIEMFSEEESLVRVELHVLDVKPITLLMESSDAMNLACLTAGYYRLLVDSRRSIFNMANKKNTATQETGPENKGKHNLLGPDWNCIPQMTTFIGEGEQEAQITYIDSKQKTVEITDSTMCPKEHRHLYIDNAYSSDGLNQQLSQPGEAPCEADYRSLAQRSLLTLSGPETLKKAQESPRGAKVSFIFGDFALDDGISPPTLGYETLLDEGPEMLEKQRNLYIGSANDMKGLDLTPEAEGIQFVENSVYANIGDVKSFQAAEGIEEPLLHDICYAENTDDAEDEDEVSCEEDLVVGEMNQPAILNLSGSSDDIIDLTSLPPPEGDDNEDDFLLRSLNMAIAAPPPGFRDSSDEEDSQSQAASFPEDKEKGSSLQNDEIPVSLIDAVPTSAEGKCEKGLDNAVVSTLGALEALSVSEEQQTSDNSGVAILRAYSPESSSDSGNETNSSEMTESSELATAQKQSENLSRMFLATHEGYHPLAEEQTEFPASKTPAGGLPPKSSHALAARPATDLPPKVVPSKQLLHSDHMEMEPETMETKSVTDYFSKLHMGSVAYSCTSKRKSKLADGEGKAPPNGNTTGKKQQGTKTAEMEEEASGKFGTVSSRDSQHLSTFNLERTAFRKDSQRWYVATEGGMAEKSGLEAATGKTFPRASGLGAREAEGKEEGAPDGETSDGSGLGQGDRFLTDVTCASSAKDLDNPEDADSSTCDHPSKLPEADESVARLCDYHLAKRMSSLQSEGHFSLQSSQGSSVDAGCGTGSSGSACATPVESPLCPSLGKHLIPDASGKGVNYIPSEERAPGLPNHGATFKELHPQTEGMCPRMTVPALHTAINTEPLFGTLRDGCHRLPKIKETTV
Method in brief: (§1)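 Biotinylated PL peptides at 10 uM (vs 20 uM in G^0 assay) bound to GST-PDZ fusions; PDZ protein at 5 ug/ml unless another concentration listed. Bound peptide read as A450 nm, classified 0–5 (0 = A450 0; 5 = A450 >4 repeated).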

[2] = target: T2, PDZ protein (GST-PDZ fusion) (Homo sapiens, UniProt O15085); settings: PDZ KIAA0380, PDZ Domain 1
T2 construct: made in house; host or cells: E. coli (DH5alpha, BL21 or JM109)
T2 sequence (O15085 whole entry, the tested form may be a part): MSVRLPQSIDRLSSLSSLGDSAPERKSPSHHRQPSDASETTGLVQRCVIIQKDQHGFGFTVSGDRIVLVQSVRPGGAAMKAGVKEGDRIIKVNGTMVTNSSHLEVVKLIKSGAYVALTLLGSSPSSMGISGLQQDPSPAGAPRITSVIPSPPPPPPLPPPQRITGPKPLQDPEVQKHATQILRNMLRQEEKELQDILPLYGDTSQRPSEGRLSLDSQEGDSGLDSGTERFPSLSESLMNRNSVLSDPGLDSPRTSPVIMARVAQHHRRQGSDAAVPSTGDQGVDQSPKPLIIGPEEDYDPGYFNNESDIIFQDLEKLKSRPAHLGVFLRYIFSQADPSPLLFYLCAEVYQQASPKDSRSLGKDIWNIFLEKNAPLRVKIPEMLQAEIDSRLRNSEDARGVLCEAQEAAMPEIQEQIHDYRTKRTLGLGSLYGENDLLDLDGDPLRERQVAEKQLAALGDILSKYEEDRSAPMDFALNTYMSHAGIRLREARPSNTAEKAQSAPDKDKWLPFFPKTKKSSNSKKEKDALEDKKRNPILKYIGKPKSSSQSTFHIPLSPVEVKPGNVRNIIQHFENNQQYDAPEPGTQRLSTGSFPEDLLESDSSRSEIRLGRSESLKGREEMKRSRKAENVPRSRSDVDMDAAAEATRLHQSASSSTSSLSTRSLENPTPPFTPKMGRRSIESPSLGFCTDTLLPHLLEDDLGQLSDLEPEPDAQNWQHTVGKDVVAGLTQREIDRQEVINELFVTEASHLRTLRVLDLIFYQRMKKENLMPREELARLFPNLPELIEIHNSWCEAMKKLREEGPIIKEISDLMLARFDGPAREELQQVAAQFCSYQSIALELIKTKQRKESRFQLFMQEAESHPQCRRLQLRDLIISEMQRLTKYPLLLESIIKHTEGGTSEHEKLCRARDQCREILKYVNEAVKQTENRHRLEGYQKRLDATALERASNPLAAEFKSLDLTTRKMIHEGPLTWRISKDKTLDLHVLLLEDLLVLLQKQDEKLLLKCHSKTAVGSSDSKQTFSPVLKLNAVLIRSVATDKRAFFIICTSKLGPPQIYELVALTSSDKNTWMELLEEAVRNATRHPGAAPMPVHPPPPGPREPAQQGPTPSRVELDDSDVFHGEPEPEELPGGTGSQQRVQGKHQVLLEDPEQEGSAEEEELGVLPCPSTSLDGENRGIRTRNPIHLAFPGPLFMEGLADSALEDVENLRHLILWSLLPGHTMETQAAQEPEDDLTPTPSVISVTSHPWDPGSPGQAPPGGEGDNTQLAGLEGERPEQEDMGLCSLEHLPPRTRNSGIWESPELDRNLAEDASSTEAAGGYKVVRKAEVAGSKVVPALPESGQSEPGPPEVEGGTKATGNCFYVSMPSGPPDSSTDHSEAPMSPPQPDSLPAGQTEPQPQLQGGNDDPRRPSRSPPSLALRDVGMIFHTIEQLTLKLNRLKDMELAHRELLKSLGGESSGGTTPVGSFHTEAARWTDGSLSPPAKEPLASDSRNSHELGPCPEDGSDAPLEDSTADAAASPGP
Method in brief: as §1

[3] = target: T3, PDZ protein (GST-PDZ fusion) (Homo sapiens, UniProt Q9BYB0); settings: PDZ SHANK3, PDZ Domain 1
T3 construct: made in house; host or cells: E. coli (DH5alpha, BL21 or JM109)
T3 sequence (Q9BYB0 whole entry, the tested form may be a part): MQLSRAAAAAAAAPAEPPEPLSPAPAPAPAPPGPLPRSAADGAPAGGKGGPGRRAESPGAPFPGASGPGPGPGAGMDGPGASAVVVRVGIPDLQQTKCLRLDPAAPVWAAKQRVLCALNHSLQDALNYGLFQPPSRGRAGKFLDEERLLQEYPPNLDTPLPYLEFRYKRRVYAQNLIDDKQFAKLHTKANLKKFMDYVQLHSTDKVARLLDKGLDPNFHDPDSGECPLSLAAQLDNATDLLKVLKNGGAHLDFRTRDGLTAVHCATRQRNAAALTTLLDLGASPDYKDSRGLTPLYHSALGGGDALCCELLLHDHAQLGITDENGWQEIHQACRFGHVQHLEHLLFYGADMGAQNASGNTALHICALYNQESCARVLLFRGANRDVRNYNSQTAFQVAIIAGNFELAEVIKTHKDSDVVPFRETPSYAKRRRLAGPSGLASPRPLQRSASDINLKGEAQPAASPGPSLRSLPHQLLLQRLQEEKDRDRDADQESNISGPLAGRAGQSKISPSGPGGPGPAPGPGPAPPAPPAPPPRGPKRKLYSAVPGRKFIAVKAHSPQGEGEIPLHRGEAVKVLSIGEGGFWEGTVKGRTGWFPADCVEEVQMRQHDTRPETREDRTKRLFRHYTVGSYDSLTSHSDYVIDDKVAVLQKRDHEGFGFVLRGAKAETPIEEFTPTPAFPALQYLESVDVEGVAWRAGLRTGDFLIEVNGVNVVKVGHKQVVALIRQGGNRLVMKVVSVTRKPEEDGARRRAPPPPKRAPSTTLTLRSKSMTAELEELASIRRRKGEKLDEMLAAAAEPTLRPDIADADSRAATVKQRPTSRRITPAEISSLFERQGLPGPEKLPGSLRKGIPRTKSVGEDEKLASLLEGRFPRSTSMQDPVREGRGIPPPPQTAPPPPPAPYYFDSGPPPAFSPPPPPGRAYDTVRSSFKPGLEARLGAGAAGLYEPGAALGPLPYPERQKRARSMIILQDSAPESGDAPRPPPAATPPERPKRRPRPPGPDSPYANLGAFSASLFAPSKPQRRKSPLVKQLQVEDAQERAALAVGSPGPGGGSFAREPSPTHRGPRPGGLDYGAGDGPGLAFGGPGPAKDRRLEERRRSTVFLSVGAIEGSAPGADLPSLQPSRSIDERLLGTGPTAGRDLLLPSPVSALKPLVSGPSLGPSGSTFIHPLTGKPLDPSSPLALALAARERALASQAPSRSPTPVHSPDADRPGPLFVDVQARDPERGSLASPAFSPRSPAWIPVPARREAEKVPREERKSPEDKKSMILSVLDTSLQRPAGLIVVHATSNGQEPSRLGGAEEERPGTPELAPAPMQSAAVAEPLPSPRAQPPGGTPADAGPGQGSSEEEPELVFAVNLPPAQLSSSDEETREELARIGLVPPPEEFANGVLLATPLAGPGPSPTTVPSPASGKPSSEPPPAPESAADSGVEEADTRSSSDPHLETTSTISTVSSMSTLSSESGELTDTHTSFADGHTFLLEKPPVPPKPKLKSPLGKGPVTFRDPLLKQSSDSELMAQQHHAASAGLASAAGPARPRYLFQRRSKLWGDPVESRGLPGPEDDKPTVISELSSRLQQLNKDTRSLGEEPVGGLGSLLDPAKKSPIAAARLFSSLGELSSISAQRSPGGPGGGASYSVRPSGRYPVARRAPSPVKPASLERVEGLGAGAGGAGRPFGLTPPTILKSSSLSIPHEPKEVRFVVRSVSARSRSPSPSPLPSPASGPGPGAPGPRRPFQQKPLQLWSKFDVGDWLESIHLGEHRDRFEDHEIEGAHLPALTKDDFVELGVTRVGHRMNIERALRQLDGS
Method in brief: as §1

[4] = target: T4, PDZ protein (GST-PDZ fusion) (Homo sapiens, UniProt Q9NY99); settings: PDZ Syntrophin gamma-2, PDZ Domain 1
T4 construct: made in house; host or cells: E. coli (DH5alpha, BL21 or JM109)
T4 sequence (Q9NY99 1-539): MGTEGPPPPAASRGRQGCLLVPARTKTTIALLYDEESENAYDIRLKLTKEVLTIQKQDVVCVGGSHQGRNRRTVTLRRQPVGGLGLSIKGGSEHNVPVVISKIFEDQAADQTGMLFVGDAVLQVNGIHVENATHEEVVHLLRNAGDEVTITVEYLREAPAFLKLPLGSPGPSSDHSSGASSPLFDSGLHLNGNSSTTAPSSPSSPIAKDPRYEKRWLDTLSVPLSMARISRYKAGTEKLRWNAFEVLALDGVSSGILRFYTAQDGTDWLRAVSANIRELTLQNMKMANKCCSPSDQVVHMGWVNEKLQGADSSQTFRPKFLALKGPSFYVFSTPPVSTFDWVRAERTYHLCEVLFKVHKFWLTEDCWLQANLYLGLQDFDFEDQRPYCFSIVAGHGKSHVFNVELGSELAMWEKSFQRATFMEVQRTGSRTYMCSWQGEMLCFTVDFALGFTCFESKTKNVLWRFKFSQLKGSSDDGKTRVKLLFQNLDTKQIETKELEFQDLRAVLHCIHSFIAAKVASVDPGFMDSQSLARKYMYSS
Method in brief: as §1

Compound | Classification [1] | Classification [2] | Classification [3] | Classification [4]
CC(C)C[C@H](NC(=O)[C@H](C)NC(=O)[C@@H](NC(=O)[C@H](CCC(=O)O)NC(=O)[C@H](CCCNC(=N)N)NC(=O)[C@H](CCCNC(=N)N)NC(=O)CNC(=O)[C@H](CCC(N)=O)NC(=O)[C@H](CC(C)C)NC(=O)[C@H](CCCNC(=N)N)NC(=O)CNC(=O)CNC(=O)[C@H](CCCNC(=N)N)NC(=O)[C@H](C)NC(=O)[C@H](CO)NC(=O)[C@H](CCCNC(=N)N)NC(=O)CNC(=O)CNC(=O)[C@H](C)NC(=O)[C@H](C)NC(=O)CCCC[C@@H]1SC[C@@H]2NC(=O)N[C@@H]21)[C@@H](C)O)C(=O)O [HPV E6 33 (modified)] (Biotin-AAGGRSARGGRLQGRRETAL-OH; C-terminus assumed) | 2 (A450 nm 1-2) | 1 (A450 nm 0-1) | 2 (A450 nm 1-2) | 1 (A450 nm 0-1)
CC(C)C[C@H](NC(=O)[C@H](C)NC(=O)[C@@H](NC(=O)[C@@H](NC(=O)[C@H](Cc1c[nH]cn1)NC(=O)[C@H](CC(C)C)NC(=O)CNC(=O)[C@H](CCC(N)=O)NC(=O)CNC(=O)CNC(=O)[C@H](C)NC(=O)[C@H](C)NC(=O)[C@H](CCCNC(=N)N)NC(=O)[C@H](C)NC(=O)[C@H](CO)NC(=O)[C@H](CC(=O)O)NC(=O)[C@H](CC(=O)O)NC(=O)[C@H](Cc1c[nH]c2ccccc12)NC(=O)[C@H](C)NC(=O)CCCC[C@@H]1SC[C@@H]2NC(=O)N[C@@H]21)C(C)C)[C@@H](C)O)C(=O)O [LPAP] (Biotin-AWDDSARAAGGQGLHVTAL-OH; C-terminus assumed) | 1 (A450 nm 0-1) | – | 3 (A450 nm 2-3) | –
CC[C@H](C)[C@H](NC(=O)[C@H](CO)NC(=O)[C@H](CCC(=O)O)NC(=O)[C@H](Cc1ccc(O)cc1)NC(=O)[C@H](CC(=O)O)NC(=O)[C@H](CC(N)=O)NC(=O)[C@H](CCC(=O)O)NC(=O)[C@H](CCCCN)NC(=O)CCCC[C@@H]1SC[C@@H]2NC(=O)N[C@@H]21)C(=O)N[C@@H](CO)C(=O)N[C@@H](CC(=O)O)C(=O)N[C@@H](CC(C)C)C(=O)N[C@@H](CCC(N)=O)C(=O)N[C@@H](CCC(N)=O)C(=O)NCC(=O)N[C@@H](CCCNC(=N)N)C(=O)N[C@@H](CC(=O)O)C(=O)N[C@H](C(=O)N[C@H](C(=O)N[C@@H](CCCNC(=N)N)C(=O)N[C@@H](CC(C)C)C(=O)O)[C@@H](C)O)[C@@H](C)CC [PAG] (Biotin-KENDYESISDLQQGRDITRL-OH; C-terminus assumed) | 1 (A450 nm 0-1) | – | 2 (A450 nm 1-2) | –
KTMPAATYRLLTGQEQPVYL (Biotin-KTMPAATYRLLTGQEQPVYL) [MINT-3] | 2 (A450 nm 1-2) | – | – | –

Continued, in another order:

Classification [1] | Compound | Classification [2] | Classification [3] | Classification [4]
1 (A450 nm 0-1) | CC(C)C[C@H](NC(=O)[C@H](CC(C)C)NC(=O)[C@@H](NC(=O)[C@H](CC(=O)O)NC(=O)CCCC[C@@H]1SC[C@@H]2NC(=O)N[C@@H]21)[C@@H](C)O)C(=O)N[C@@H](CC(C)C)C(=O)N[C@H](C(=O)N[C@@H](CCC(=O)O)C(=O)N[C@@H](CC(N)=O)C(=O)N[C@@H](CCC(=O)O)C(=O)NCC(=O)N[C@@H](CC(=O)O)C(=O)N[C@@H](CCCCN)C(=O)N[C@H](C(=O)N[C@@H](CCC(=O)O)C(=O)N[C@@H](CCC(=O)O)C(=O)N[C@@H](CCC(N)=O)C(=O)N[C@H](C(=O)N[C@@H](CO)C(=O)N[C@@H](Cc1ccc(O)cc1)C(=O)N[C@H](C(=O)O)C(C)C)C(C)C)[C@@H](C)O)[C@@H](C)O [5H2B_HUMAN] (Biotin-DTLLLTENEGDKTEEQVSYV-OH; C-terminus assumed) | – | – | –
1 (A450 nm 0-1) | CC(C)C[C@H](NC(=O)[C@H](CC(=O)O)NC(=O)[C@H](CO)NC(=O)[C@H](CCC(=O)O)NC(=O)CNC(=O)[C@H](Cc1ccc(O)cc1)NC(=O)[C@H](CC(C)C)NC(=O)[C@H](C)NC(=O)[C@H](CO)NC(=O)[C@H](CO)NC(=O)[C@H](Cc1ccccc1)NC(=O)[C@H](C)NC(=O)[C@H](C)NC(=O)[C@H](Cc1ccc(O)cc1)NC(=O)[C@H](CC(=O)O)NC(=O)[C@H](CC(C)C)NC(=O)[C@H](C)NC(=O)CNC(=O)[C@@H]1CCCN1C(=O)[C@@H](NC(=O)CCCC[C@@H]1SC[C@@H]2NC(=O)N[C@@H]21)C(C)C)C(=O)O [a-actinin 2] (Biotin-VPGALDYAAFSSALYGESDL-OH; C-terminus assumed) | 1 (A450 nm 0-1) | – | 1 (A450 nm 0-1)
